Test: gradient 5% acetonitrile 3 min, to 50% in 2 min, to 85% in 15 min, held 3 min, 100 µL/min
Conditions: column: Zorbax Extend-C18 2.1 x 50 mm; eluents: water / acetonitrile, 0.1% formic acid
Method in brief: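 A Zorbax Extend-C18 column (2.1 × 50 mm, 1.8 μm) run at 100 μL/min with water and acetonitrile, both containing 0.1% formic acid, separated mixtures of ~100 pure standards. The HPLC was coupled to a quadrupole time-of-flight mass spectrometer operated in positive and negative ionization mode, with dead and dwell volumes of 40 μL and 900 μL. Each retention time was taken from a computationally picked adduct peak that was then manually inspected.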

| SMILES | RP-LC retention time [s] |
| --- | --- |
| O=C(COc1ccccc1)N1CCCC(OCc2nc(C3CC3)no2)C1 (stereo not given) | 610 |
| CC1CCCCN1S(=O)(=O)c1ccc2c(c1)CCC(=O)N2CC(=O)NCc1ccccc1 (stereo not given) | 876 |
| Cn1nc(-c2nncn2CC2CC2)c2c1CCN(C(=O)CC1CCCC1)C2 | 753 |
| Cc1ccccc1Nc1c(-c2cccc(Br)c2)nc2ccc(Br)cn12 | 1150 |
| Cc1cc(C)c2c(N)c(C(=O)Nc3cccc4cccnc34)sc2n1 | 1080 |
| Cc1ccc2c(c1)C1CC(C)(O2)N(c2cccc(C(=O)NCc3ccccn3)c2)C(=O)N1 (stereo not given) | 646 |
| COc1ccccc1-c1csc(NC(=O)Cc2csc(-c3ccccc3)n2)n1 | 1150 |
| COc1ccc(OC)c(NC(=O)CN2C(=O)CC(c3ccccc3)=Nc3ccccc32)c1 | 982 |
| COc1ccc(C(=O)Nc2nc(C)c3cc4c(cc3n2)OCO4)cc1 | 692 |
| Cc1cccc(CNC(=O)C2CC(=O)N(c3ccc4c(c3)CCN4C(=O)C3CC3)C2)c1 (stereo not given) | 768 |
| CCNC(=O)c1nc(C(=O)NCCC(C)C)cs1 | 771 |
| Cc1cc(N2CCN(c3ccccn3)CC2)n2nc(C(F)(F)F)c(-c3ccccc3)c2n1 | 855 |
| CC(C)c1ccc2nc3ccc(C(=O)NCCN(C)C)cn3c(=O)c2c1 | 631 |
| O=C(c1cc2ccccc2[nH]1)N1CCN(c2cc(-c3cccs3)[nH]n2)CC1 | 832 |
| Cc1ccc(Cn2c(=O)c(N3CCC(NC(=O)NCC4CCCO4)CC3)nc3cccnc32)cc1 (stereo not given) | 929 |
| Cc1ccc(C2=NN3C(C2)c2ccccc2OC32CCCC2)o1 (stereo not given) | 942 |
| Cc1ccc(-c2ncccc2CNC(=O)c2ccc3c(c2)OCO3)cc1 | 646 |
| O=C(Nc1ccc2c(c1)OCO2)C1CCCN(S(=O)(=O)Cc2ccc(Cl)cc2)C1 (stereo not given) | 964 |
| COc1ccc(OC)c(-c2csc(NC(=O)c3ccccc3)n2)c1 | 1040 |
| CC(CCc1ccccc1)NC(=O)c1cc2n(n1)CC(C)(C(=O)NC1CCCC1)N(C)C2=O (stereo not given) | 844 |
| CCN1c2cc(Cl)ccc2C(=O)NC12CCN(C(=O)Nc1ccc(C)cc1C)CC2 | 968 |
| c1cc(N2CCCCC2)ncc1-c1noc(CN2CCC3(CC2)OCCO3)n1 | 637 |
| CCc1noc(-c2ccnc(-n3cnc(C(=O)NCc4ccccc4)c3)c2)n1 | 866 |

| SMILES | RP-LC retention time [s] |
| --- | --- |
| CCC(C)NC(=O)c1cc2c(n(-c3ccc(C(F)(F)F)cc3)c1=O)CCCC2=O (stereo not given) | 946 |
| Cc1ccccc1Nc1c(-c2ccccc2)nc2ccc(Cl)cn12 | 869 |
| COC(=O)c1ccc(Cl)cc1NC(=O)c1cc2ccccc2o1 | 1280 |
| CC(=O)Nc1ccc2nc(NC(=O)c3cccc(C(F)(F)F)c3)sc2c1 | 784 |
| Cc1nc(-c2ccc(N3CCN(C(=O)COc4ccc(F)cc4)CC3)nc2)sc1C | 880 |
| Cc1oc(C2CCC2)nc1C(=O)N1CCN(Cc2ccc3c(c2)OCO3)CC1 | 583 |
| Cc1ccc(N2CCC(NC(=O)c3ccccc3C(F)(F)F)C2=O)cc1 (stereo not given) | 885 |
| CCn1nc(CNC(=O)c2cncc(Br)c2)c2ccccc21 | 820 |
| O=C(Nc1cccc(Cl)c1)Nc1ccc2nncn2c1 | 735 |
| CCCN(CC1CCOC1)S(=O)(=O)Cc1ccccc1F (stereo not given) | 878 |
| Cc1ccc(C2Cn3cnc(C(=O)N4CCC(C(=O)NCc5ccccc5C)CC4)c3CO2)cc1 (stereo not given) | 810 |
| O=C(NC1(c2nc(-c3ccccc3)no2)CCCCC1)c1ccc(Br)cc1 | 1240 |
| O=C(N[C@H]1C[C@@H]2C[C@H]1N(S(=O)(=O)c1ccc3c(c1)CCC3)C2)c1cccs1 | 943 |
| Cc1ccc(-c2nc(NC(=O)CCCOc3ccccc3C)sc2C)cc1 | 1270 |
| O=C(c1ccc(-c2cncnc2)nc1)N1CCN(c2ccccc2F)CC1 | 760 |
| CCN1CCN(c2c(C(=O)c3ccc(OC)cc3)cnc3cc4c(cc23)OCCO4)CC1 | 551 |
| COCCNC(=O)COc1nc(C)nc2onc(-c3ccc(F)cc3)c12 | 782 |
| CC1CCCN(S(=O)(=O)c2ccc(-n3cnc(C(=O)NCC4CC4)c3)nc2)C1 (stereo not given) | 902 |
| CCN(CC)C(=O)Cn1c(=O)c2cnc(-c3ccccc3)nc2n(C)c1=O | 854 |
| O=C(NCc1ccccc1)N1CCN(c2ccc(-c3cccs3)nn2)CC1 | 639 |
| COc1cc(Cn2nc(C)c3cnn(C(C)(C)C)c3c2=O)cc(OC)c1 | 1070 |
| COc1ccc(N2C(=O)CCS2(=O)=O)cc1S(=O)(=O)N1CCN(c2ccccn2)CC1 | 603 |
| Cc1cccc(OCCc2noc(C3CCNC3)n2)c1 (stereo not given) | 646 |

| SMILES | RP-LC retention time [s] |
| --- | --- |
| O=S(=O)(NCc1cccnc1-c1ccc(F)cc1)c1ccc(F)cc1 | 737 |
| CSc1ccc(-c2nc3cnccn3c2Nc2cccc(C(=O)NC3CCCCC3)c2)cc1 | 892 |
| Cc1ccc(-c2csc(Nc3ccccn3)n2)cc1 | 918 |
| O=C(Nc1ccc2c(c1)OCO2)C1CCN(c2cc(N3CCCC3)ncn2)CC1 | 642 |
| O=C(NCC1CC(=O)N(Cc2ccc(F)cc2)C1)Nc1cccs1 (stereo not given) | 668 |
| COc1cccc(-c2cc(N3CCN(C(=O)Nc4cc(OC)ccc4OC)CC3)ncn2)c1 | 688 |
| COc1ccc(N2C(=O)C3N=NN(Cc4nc(-c5ccc(Cl)cc5)no4)C3C2=O)cc1 (stereo not given) | 1000 |
| CCc1ccc(NC(=O)Cn2c(C)nc3onc(C)c3c2=O)cc1 | 845 |
| CN1c2ccccc2C(=O)NC12CCN(C(=O)c1ccccc1)CC2 | 700 |
| O=C(Cc1ccc(Cl)cc1)N1CCN(c2nc(CN3CCOCC3)cs2)CC1 | 642 |
| O=C(NCc1ccccn1)C(=O)NCC1OCCN1C(=O)c1ccc2c(c1)OCO2 (stereo not given) | 563 |
| COc1nccnc1N1CCC(NC(=O)CCc2c(C)noc2C)C1 (stereo not given) | 606 |
| COc1ccc2c(c1)C1(CCN(C(=O)c3ccccc3)C1)C(=O)N2 (stereo not given) | 692 |
| Cc1nc(CCNC(=O)C2CCN(S(=O)(=O)c3cccc(C(F)(F)F)c3)CC2)cs1 | 776 |
| Cc1oc2ncnc(N3CCCCC3)c2c1C(=O)NCCN(Cc1ccco1)C1CCCC1 | 845 |
| COc1ccc(NC(=O)Cn2c(C(C)C)nc3c(c2=O)CCN(Cc2ccccc2)C3)c(OC)c1 | 703 |
| O=C(Nc1ccccc1Br)N1CCc2nc[nH]c2C1 | 566 |
| Cc1nn(-c2ccc(Cl)cc2)c2sc(C(=O)O)cc12 | 1010 |
| CCOc1cc(CN2CCCC2c2cc(C)no2)ccc1OCC(N)=O (stereo not given) | 580 |
| O=C(CCc1c(-c2cccc(Cl)c2)nc2ccccn12)NCc1ccco1 | 637 |
| COc1ccc(NC(=O)NCC23CCCC=C2N(C)C(=O)CC3)cc1 (stereo not given) | 740 |
| CCOC(=O)C1CCCN(C(=O)Cn2ccc3ccc(-c4nnc(C)o4)cc32)C1 (stereo not given) | 785 |
| c1ccc(CNc2nc(-c3ccccc3)no2)cc1 | 975 |

| SMILES | RP-LC retention time [s] |
| --- | --- |
| O=C(Nc1ccc(Nc2ccc(-n3cccn3)nn2)cc1)Nc1ccccc1Cl | 791 |
| O=C(NCc1ccc(F)cc1F)c1ccc2c(c1)nc1n2CCN(c2ccccc2)C1=O | 781 |
| CCc1noc(NC(C)=O)c1-c1ccc(C)c(S(=O)(=O)N(CC)CC)c1 | 836 |
| Cc1cc(Cl)ccc1NC(=O)N1CCC(c2nc3ccncc3n2C(C)C)C1 (stereo not given) | 648 |
| Cc1ccc(-c2cn3c(CC(=O)NCc4ccc5c(c4)OCO5)csc3n2)cc1C | 794 |
| COC(=O)c1c(NCCc2ccc(Cl)cc2)c2cc(F)ccc2[nH]c1=O | 857 |
| Cc1cccc(NC(=O)C2CC(=O)N(c3n[nH]c4cccc(F)c34)C2)c1C (stereo not given) | 770 |
| Cn1c(=O)c2ccnn2c2ccc(C(=O)NC3CCCCC3)cc21 | 742 |
| CCc1nc2cc(-c3noc(Cc4ccc(F)cc4)n3)ccc2o1 | 1070 |
| Cc1ccc(CNC(=O)C2(C)Cn3nc(C(=O)NCCCN4CCCCCC4)cc3C(=O)N2C)cc1 (stereo not given) | 617 |
| CN1CCN(CCCNC(=O)c2noc3c2CCCCC3)CC1 | 584 |
| Cc1ccc(-c2nocc2CCC(=O)NC(C)c2ccc(F)cc2)cc1 (stereo not given) | 953 |
| Cc1cc2cc3n(c2nn1)N=C(Cl)CC3 | 610 |
| Cc1cc(C)n(-c2nc(CC(=O)N3CCN(c4ccccc4)CC3)cs2)n1 | 947 |
| COc1ccc(NC(=O)N2CCC3(CC2)NC(=O)c2ccccc2N3C)c(OC)c1 | 649 |
| O=C(c1ccc(N2CCN(c3ncccn3)CC2)nn1)N1CCc2ccccc21 | 784 |
| CNC(=O)[C@@H]1CN(C(=O)c2ccsc2)C[C@H]1c1nc(C)no1 | 615 |
| COCc1nc(CCNC(=O)NCC(C)C)no1 | 626 |
| O=C(CN1CCN(CC(=O)c2cccs2)CC1)Nc1cc(C(F)(F)F)ccc1Cl | 625 |
| O=C(Nc1ccc(C(=O)O)c(O)c1)c1cc2ccccc2c(=O)o1 | 770 |
| CCN(CC)C(=O)Cn1ccc2ccc(-c3nnc(C)o3)cc21 | 718 |

— the METLIN SMRT retention time set (Domingo-Almenara et al. 2019)
